Measured values published in US7589108B2, “1-Heterocyclylalkyl-3-sulfonylindole or -indazole derivatives as 5-hydroxytryptamine-6 ligands” (Wyeth, priority 2002, dated 2009).
Counter-ions that a name gives are not always drawn. Like-named read-outs stand apart in the source and are kept apart here.

What was measured:
[1] = target: T1, human cloned 5-HT6 receptors (Homo sapiens, UniProt P50406); experiment: 5-HT6 binding affinity ([3H]-LSD displacement, membranes of Hela cells)
T1 construct: expressed in transfected cells; host or cells: HeLa cells
T1 sequence (P50406 whole entry): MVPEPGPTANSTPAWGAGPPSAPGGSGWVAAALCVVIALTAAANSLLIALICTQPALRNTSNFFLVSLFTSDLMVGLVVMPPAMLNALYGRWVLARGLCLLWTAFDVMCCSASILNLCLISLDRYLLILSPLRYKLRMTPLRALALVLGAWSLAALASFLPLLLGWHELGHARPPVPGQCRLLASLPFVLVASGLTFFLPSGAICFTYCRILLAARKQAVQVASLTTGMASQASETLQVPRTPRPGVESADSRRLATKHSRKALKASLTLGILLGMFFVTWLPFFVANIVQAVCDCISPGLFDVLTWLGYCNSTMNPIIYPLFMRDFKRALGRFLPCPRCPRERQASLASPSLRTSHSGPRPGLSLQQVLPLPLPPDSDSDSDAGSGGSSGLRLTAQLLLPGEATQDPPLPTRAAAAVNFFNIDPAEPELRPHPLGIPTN
Description: The affinity of test compounds for the serotonin 5-HT6 receptor is evaluated in the following manner. Cultured Hela cells expressing human cloned 5-HT6 receptors are harvested and centrifuged at low speed (1,000×g) for 10.0 min to remove the culture media. The harvested cells are suspended in half volume of fresh physiological phosphate buffered saline solution and recentrifuged at the same speed. This operation is repeated. The collected cells are then homogenized in ten volumes of 50 mM Tris.HCl (pH 7.4) and 0.5 mM EDTA. The homogenate is centrifuged at 40,000×g for 30.0 min and the precipitate is collected. The obtained pellet is resuspended in 10 volumes of Tris.HCl buffer and recentrifuged at the same speed. The final pellet is suspended in a small volume of Tris.HCl buffer and the tissue protein content is determined in aliquots of 10-25 μl volumes. Bovine Serum Albumin is used as the standard in the protein determination according to the method described in Lowry et al., J. Biol. Chem., 193:265 (1951). The volume of the suspended cell membranes is adjusted to give a tissue protein concentration of 1.0 mg/ml of suspension. The prepared membrane suspension (10 times concentrated) is aliquoted in 1.0 ml volumes and stored at −70° C. until used in subsequent binding experiments.
Binding experiments are performed in a 96 well microtiter plate format, in a total volume of 200 μl. […] The test compounds are added in 20.0 μl volume.
The reaction is allowed to proceed in the dark for 120 min at room temperature, at which time, the bound ligand-receptor complex is filtered off on a 96 well unifilter with a Packard Filtermate® 196 Harvester. The bound complex caught on the filter disk is allowed to air dry and the radioactivity is measured in a Packard TopCount® equipped with six photomultiplier detectors, after the addition of 40.0 μl Microscint®-20 scintillant to each shallow well. The unifilter plate is heat-sealed and counted in a PackardTopCount® with a tritium efficiency of 31.0%.
Binding in the presence of varying concentrations of test compound is expressed as a percentage of specific binding in the absence of test compound. The results are plotted as log % bound versus log concentration of test compound. […] A linear regression line of data points is plotted, from which the IC50 value is determined and the Ki value is determined based upon the following equation: Ki=IC50/(1+L/KD) where L is the concentration of the radioactive ligand used and KD is the dissociation constant of the ligand for the receptor, both expressed in nM.

[2] = [3H]-LSD 3.0 nM, Hela cell membranes expressing human cloned 5-HT6 receptors, 120 min at room temperature, read-out: 5-HT6 Binding Ki

Compound | Ki [1, 2] | melting point | Ki [1]
O=S(=O)(c1cn(C2CCCNC2)c2ccccc12)c1cccc2cccnc12 (stereo not drawn) [Example 15] | 0.006 µM | > 195 °C (dec.) | 
O=S(=O)(c1ccccc1)c1cn(C2CCNCC2)c2ccccc12 [Example 13] | 0.091 µM | 294 to 297 °C | 
O=S(=O)(c1cccc2ccccc12)c1cn(C2CCCNC2)c2ccccc12 (stereo not drawn) [Example 14] | 0.021 µM | > 180 °C (dec.) | 
O=S(=O)(c1cccc(Cl)c1)c1cn(C2CCCNC2)c2ccccc12 (stereo not drawn) [Example 17] | 0.005 µM | > 150 °C (dec.) | 
O=S(=O)(c1ccccc1)c1cn(C2CCN(Cc3ccccc3)CC2)c2ccccc12 [Example 12] |  | 288 to 291 °C | 0.049 µM
O=S(=O)(c1ccccc1)c1cn(C2CCCN(Cc3ccccc3)C2)c2ccccc12 (stereo not drawn) [Example 8, 1-(1-Benzylpiperidin-3-yl)-3-(phenylsulfonyl)-1H-indole] | 0.122 µM |  | 
O=S(=O)(c1ccccc1)c1cn(C2CCCNC2)c2ccccc12 (stereo not drawn) [Example 9, 3-(Phenylsulfonyl)-1-(piperidin-3-yl)-1H-indole Hydrochloride] | 0.013 µM |  | 
O=S(=O)(c1ccccc1)c1cn(CC2CCNCC2)c2ccccc12 [Example 4, 3-(Phenylsulfonyl)-1-(Piperidin-4-ylmethyl)-1H-indole Hydrochloride] | 0.027 µM |  | 

Continued, in another order:

Ki [1, 2] | melting point | Compound | Ki [1]
0.004 µM |  | O=S(=O)(c1cccc(F)c1)c1cn(C2CCCNC2)c2ccc(F)cc12 (stereo not drawn) [Example 20] | 
0.011 µM | 267 to 270 °C | COc1ccc2c(c1)c(S(=O)(=O)c1cccc(F)c1)cn2C1CCCNC1 (stereo not drawn) [Example 18] | 
0.062 µM | 242 to 245 °C | CN1CCCC(n2cc(S(=O)(=O)c3cccc(F)c3)c3cc(Cl)ccc32)C1 (stereo not drawn) [Example 23] | 
0.068 µM | 262 to 265 °C | COc1ccc2c(c1)c(S(=O)(=O)c1cccc(F)c1)cn2C1CCCN(C)C1 (stereo not drawn) [Example 19] | 
0.029 µM |  | O=S(=O)(c1cccc(F)c1)c1cn(C2CCCNC2)c2ccc(Cl)cc12 (stereo not drawn) [Example 22] | 
